Results: US8822517B2, “Arylosulfonamides for the treatment of CNS diseases” (Adamed SP. Z O.O., priority 2010, dated 2014)

Columns and labels:
[1] = molecular target: dopaminergic D3 receptor (Homo sapiens, UniProt P35462); assay: Binding assay D3 (h), [3H]methyl-spiperone, CHO cells; set-up: expressed in transfected cells; host or cells: CHO cells; conditions: read-out: D3 [%]
Procedure, shortened: (§1)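 Total binding and binding under an excess of unlabelled competitor were both measured, the difference giving specific binding. Counts came from scintillation detection, and compound concentration was 1×10^−6 M.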

[2] = molecular target: serotoninergic 5-HT2A receptor (Homo sapiens, UniProt P28223); assay: Binding assay 5-HT2A (h), [3H]ketanserin, HEK-293 cells; set-up: expressed in transfected cells; host or cells: HEK-293 cells; conditions: read-out: 5-HT2A
Procedure, shortened: as §1

[3] = molecular target: T1, serotoninergic 5-HT1A receptor (Homo sapiens, UniProt P08908); assay: Binding assay 5-HT1A (h), [3H]8-OH-DPAT, HEK-293 cells; set-up: expressed in transfected cells; host or cells: HEK-293 cells; conditions: read-out: 5-HT1A
T1 sequence (P08908 1-422): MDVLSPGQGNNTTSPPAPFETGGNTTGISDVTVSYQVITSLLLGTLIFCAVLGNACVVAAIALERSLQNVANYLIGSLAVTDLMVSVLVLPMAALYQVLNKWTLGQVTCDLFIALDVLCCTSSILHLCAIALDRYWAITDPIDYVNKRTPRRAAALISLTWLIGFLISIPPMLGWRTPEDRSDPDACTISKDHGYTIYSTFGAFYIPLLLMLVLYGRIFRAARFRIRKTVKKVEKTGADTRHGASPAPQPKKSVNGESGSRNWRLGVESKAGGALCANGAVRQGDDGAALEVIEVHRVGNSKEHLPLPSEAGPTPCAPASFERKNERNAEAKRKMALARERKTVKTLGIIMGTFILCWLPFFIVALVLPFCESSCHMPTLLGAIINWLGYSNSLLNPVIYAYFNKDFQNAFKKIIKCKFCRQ
Procedure, shortened: as §1

[4] = molecular target: serotoninergic 5-HT6 receptor (Homo sapiens, UniProt P50406); assay: Binding assay 5-HT6 (h), [3H]LSD, CHO cells; set-up: expressed in transfected cells; host or cells: CHO cells; conditions: read-out: 5-HT6
Procedure, shortened: as §1

[5] = molecular target: dopaminergic D2 receptor (Homo sapiens, UniProt P14416); assay: Binding assay D2S (h), [3H]methyl-spiperone, HEK-293 cells; set-up: expressed in transfected cells; host or cells: HEK-293 cells; conditions: read-out: D2 [%]
Procedure, shortened: as §1

[6] = molecular target: T2, serotonine transporter (SERT) receptor (Homo sapiens, UniProt P31645); assay: Binding assay SERT (h), [3H]imipramine, CHO cells; conditions: read-out: SERT [%]
T2 construct: expressed in transfected cells; host or cells: CHO cells
Procedure, shortened: as §1

[7] = molecular target: serotoninergic 5-HT7 receptor (Homo sapiens, UniProt P34969); assay: Binding assay 5-HT7 (h), [3H]LSD, CHO cells; set-up: expressed in transfected cells; host or cells: CHO cells; conditions: read-out: 5-HT7
Procedure, shortened: as §1

[8] = system: adrenergic α1 receptor; assay: Binding assay α1 (non-selective), [3H]prazosin, rat cerebral cortex; conditions: percent inhibition of control specific binding; compounds tested at 1×10^−6 M
Procedure, shortened: as §1

T2 sequence (P31645 whole entry): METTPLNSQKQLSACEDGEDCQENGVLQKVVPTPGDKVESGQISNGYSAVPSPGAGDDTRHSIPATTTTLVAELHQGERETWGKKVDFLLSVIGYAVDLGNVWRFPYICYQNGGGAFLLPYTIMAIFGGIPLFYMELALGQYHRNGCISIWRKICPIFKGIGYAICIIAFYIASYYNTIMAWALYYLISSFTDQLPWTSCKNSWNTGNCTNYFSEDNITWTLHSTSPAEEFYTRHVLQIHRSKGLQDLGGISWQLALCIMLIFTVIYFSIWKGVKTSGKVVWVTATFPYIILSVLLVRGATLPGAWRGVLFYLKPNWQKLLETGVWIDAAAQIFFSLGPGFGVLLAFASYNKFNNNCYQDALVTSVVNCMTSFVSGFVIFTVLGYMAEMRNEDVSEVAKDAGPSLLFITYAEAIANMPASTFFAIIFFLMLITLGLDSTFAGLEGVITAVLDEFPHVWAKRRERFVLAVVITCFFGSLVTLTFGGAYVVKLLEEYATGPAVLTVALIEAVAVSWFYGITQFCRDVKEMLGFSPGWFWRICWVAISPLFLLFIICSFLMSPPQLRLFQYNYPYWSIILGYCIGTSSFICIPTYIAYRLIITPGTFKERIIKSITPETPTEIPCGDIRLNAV
Chain of dopaminergic D3 receptor (P35462 whole entry): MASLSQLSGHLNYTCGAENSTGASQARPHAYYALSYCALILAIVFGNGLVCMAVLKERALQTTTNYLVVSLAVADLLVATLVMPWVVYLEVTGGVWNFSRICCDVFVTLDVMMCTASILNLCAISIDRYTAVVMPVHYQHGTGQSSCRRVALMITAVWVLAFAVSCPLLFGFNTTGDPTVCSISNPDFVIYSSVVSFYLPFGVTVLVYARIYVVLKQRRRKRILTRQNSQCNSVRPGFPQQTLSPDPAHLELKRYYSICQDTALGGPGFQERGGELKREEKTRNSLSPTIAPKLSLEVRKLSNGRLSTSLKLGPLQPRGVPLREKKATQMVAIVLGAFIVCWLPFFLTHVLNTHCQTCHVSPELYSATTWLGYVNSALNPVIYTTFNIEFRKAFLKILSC
Chain of serotoninergic 5-HT7 receptor (P34969 whole entry): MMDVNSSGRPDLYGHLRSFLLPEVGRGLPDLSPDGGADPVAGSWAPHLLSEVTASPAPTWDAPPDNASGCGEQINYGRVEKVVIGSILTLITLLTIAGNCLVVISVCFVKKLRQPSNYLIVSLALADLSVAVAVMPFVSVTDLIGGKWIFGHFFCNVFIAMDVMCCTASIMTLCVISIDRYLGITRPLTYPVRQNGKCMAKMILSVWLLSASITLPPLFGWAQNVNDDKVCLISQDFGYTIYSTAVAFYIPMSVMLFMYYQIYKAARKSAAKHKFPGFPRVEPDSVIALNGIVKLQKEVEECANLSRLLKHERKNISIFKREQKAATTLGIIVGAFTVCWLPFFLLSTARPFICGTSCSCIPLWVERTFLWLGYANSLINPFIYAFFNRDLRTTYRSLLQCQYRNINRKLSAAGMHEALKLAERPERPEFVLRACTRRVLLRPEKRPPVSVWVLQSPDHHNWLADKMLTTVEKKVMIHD
Chain of serotoninergic 5-HT2A receptor (P28223 whole entry): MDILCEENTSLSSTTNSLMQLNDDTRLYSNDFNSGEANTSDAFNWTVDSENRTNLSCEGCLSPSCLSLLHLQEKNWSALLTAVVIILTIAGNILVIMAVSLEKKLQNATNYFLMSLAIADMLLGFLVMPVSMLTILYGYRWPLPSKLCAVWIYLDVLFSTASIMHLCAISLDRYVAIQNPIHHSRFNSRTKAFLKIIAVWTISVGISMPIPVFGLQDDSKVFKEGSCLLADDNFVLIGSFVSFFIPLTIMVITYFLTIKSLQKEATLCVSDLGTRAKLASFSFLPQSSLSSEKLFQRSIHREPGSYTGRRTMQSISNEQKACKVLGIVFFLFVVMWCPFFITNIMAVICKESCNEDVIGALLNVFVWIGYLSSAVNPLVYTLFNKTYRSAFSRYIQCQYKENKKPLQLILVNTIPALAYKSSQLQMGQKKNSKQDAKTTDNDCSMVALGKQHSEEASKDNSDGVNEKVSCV
Chain of serotoninergic 5-HT6 receptor (P50406 whole entry): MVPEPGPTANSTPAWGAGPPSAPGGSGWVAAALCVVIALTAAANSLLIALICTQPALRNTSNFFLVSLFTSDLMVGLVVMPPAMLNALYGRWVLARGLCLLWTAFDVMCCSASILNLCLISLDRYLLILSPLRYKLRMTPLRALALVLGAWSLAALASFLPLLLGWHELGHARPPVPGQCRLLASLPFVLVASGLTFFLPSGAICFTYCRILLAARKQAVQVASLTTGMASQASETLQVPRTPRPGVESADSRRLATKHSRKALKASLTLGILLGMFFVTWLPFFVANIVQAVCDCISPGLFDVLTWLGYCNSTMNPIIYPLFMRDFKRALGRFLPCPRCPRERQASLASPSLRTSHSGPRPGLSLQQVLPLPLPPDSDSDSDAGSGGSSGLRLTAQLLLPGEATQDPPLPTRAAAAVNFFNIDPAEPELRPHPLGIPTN
Chain of dopaminergic D2 receptor (P14416 1-414 isoform P14416-2): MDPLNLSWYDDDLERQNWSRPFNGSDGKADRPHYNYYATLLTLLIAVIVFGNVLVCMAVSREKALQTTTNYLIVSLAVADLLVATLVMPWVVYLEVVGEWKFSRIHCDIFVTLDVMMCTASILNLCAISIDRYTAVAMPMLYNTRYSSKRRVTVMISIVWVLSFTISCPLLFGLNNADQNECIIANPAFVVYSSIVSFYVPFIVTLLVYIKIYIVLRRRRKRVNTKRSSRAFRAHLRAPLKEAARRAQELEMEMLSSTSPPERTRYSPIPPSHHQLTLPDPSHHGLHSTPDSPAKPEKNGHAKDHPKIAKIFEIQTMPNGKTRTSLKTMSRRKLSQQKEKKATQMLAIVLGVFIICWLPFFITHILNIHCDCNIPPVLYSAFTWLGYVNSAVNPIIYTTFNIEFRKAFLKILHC

| Compound | inhibition at 1 µM [1] | inhibition at 1 µM [2] | inhibition at 1 µM [3] | inhibition at 1 µM [4] | inhibition at 1 µM [5] | inhibition at 1 µM [6] | inhibition at 1 µM [7] | α1 [%] [8] |
| --- | --- | --- | --- | --- | --- | --- | --- | --- |
| Cc1c(S(=O)(=O)NCCCCN2CCN(c3cccc4[nH]c(=O)[nH]c34)CC2)sc2ccc(Cl)cc12 [Compound 165, 5-Chloro-3-methyl-N-[4-[4-(2-oxo-1,3-dihydrobenzimidazol-4-yl)piperazin-1-yl]butyl]-1-benzothiophene-2-sulfonamide] | 89% | 37% | 70% | -16% | 64% | 4% | 86% | 47% |
| O=S(=O)(NCCCN1CCC(c2noc3cc(F)ccc23)CC1)c1ccc(F)cc1 [Compound 326, 4-Fluoro-N-[3-[4-(6-fluoro-1,2-benzoxazol-3-yl)piperidin-1-yl]propyl]benzenesulphonamide] | 99% | 96% | 59% | 94% | 109% | 19% | 94% | 101% |
| O=S(=O)(NCCCCN1CCC(c2noc3cc(F)ccc23)CC1)c1ccc(-c2ccccc2)cc1 [Compound 111, N-[4-[4-(6-Fluoro-1,2-benzoxazol-3-yl)piperidin-1-yl]butyl]-4-phenylbenzenesulphonamide] | 93% | 96% | 39% | 95% | 108% | -14% | 93% | 100% |
| O=S(=O)(NCCCCN1CCC(c2noc3cc(F)ccc23)CC1)c1ccsc1 [Compound 307, N-[4-[4-(6-Fluoro-1,2-benzoxazol-3-yl)piperidin-1-yl]butyl]thiophene-3-sulphonamide] | 95% | 99% | 73% | 76% | 88% | -3% | 85% | 105% |
| O=S(=O)(NCCCCN1CCN(c2nsc3ccccc23)CC1)c1ccc(Br)cc1 [Compound 229, N-[4-[4-(1,2-Benzothiazol-3-yl)piperazin-1-yl]butyl]-4-bromobenzenesulphonamide] | 95% | 80% | 92% | 75% | 101% | 9% | 89% | 96% |
| O=C1Cc2cc(S(=O)(=O)NCCCCN3CCC(c4noc5cc(F)ccc45)CC3)ccc2N1 [Compound 324, N-[4-[4-(6-Fluoro-1,2-benzoxazol-3-yl)piperidin-1-yl]butyl]-2-oxo-indoline-5-sulphonamide] | 103% | 104% | 56% | 78% | 105% | 37% | 78% | 103% |
| Cc1[nH]c2ccc(Cl)cc2c1C1=CCN(CCCNS(=O)(=O)c2cccc(F)c2)CC1 [Compound 140, N-[3-[4-(5-Chloro-2-methyl-1H-indol-3-yl)-3,6-dihydro-2H-pyridin-1-yl]propyl]-3-fluorobenzenesulphonamide] | 73% | 68% | 56% | 92% | 47% | 14% | 81% | 17% |
| O=S(=O)(NCCCCN1CCN(c2noc3ccccc23)CC1)c1cccc(C(F)(F)F)c1 [Compound 91, N-[4-[4-(1,2-Benzoxazol-3-yl)piperazin-1-yl]butyl]-3-(trifluoromethyl)benzenesulphonamide] | 70% | 95% | 40% | 83% | 92% | 2% | 99% | 99% |
| Cn1ccc2cc(S(=O)(=O)NCCCN3CCC(c4noc5cc(F)ccc45)CC3)ccc21 [Compound 344, N-[3-[4-(6-Fluoro-1,2-benzoxazol-3-yl)piperidin-1-yl]propyl]-1-methyl-indole-5-sulphonamide] | 101% | 105% | 42% | 91% | 107% | 31% | 95% | 106% |
| O=C1COc2c(cccc2N2CCN(CCCCNS(=O)(=O)c3ccc(C(F)(F)F)cc3)CC2)N1 [Compound 429, N-[4-[4-(3-oxo-4H-1,4-benzoxazin-8-yl)piperazin-1-yl]butyl]-4-(trifluoromethyl)benzenesulphonamide] | 104% | 35% | 88% | -57% | 61% | 22% | 83% | 78% |
| O=C1COc2c(cccc2N2CCN(CCCCNS(=O)(=O)c3ccc(Cl)s3)CC2)N1 [Compound 431, 5-Chloro-N-[4-[4-(3-oxo-4H-1,4-benzoxazin-8-yl)piperazin-1-yl]butyl]thiophene-2-sulphonamide] | 103% | 31% | 101% | 35% | 68% | 12% | 67% | 88% |
| O=S(=O)(NCCCN1CCC(c2noc3cc(F)ccc23)CC1)c1cccc(C(F)(F)F)c1 [Compound 335, N-[3-[4-(6-Fluoro-1,2-benzoxazol-3-yl)piperidin-1-yl]propyl]-3-(trifluoromethyl)-benzenesulphonamide] | 93% | 97% | 54% | 93% | 105% | -25% | 88% | 101% |
| O=S(=O)(NCCCN1CCN(c2nsc3ccccc23)CC1)c1ccc(OC(F)(F)F)cc1 [Compound 259, N-[3-[4-(1,2-Benzothiazol-3-yl)piperazin-1-yl]propyl]-4-(trifluoromethoxy)benzenesulphonamide] | 85% | 56% | 97% | 74% | 93% | 16% | 96% | 88% |
| O=S(=O)(NCCCN1CCC(c2noc3cc(F)ccc23)CC1)c1ccc(-c2ccccc2)cc1 [Compound 112, N-[3-[4-(6-Fluoro-1,2-benzoxazol-3-yl)piperidin-1-yl]propyl]-4-phenylbenzenesulphonamide] | 98% | 93% | 20% | 94% | 103% | -17% | 95% | 99% |
| O=S(=O)(NCCCCN1CCN(c2cccc3c2OCCO3)CC1)c1cccc(Cl)c1 [Compound 390, 3-Chloro-N-[4-[4-(2,3-dihydro-1,4-benzodioxin-5-yl)piperazin-1-yl]butyl]benzenesulphonamide] | 81% | 59% | 101% | 26% | 61% | -15% | 66% | 73% |
| Cc1[nH]c2ccc(Cl)cc2c1C1=CCN(CCCCNS(=O)(=O)c2cccc(Cl)c2)CC1 [Compound 137, N-[4-[4-(5-Chloro-2-methyl-1H-indol-3-yl)-3,6-dihydro-2H-pyridin-1-yl]butyl]-3-chlorobenzenesulphonamide] | 92% | 47% | 39% | 91% | 65% | 38% | 33% | 10% |
